Results reported in ChEMBL document CHEMBL5131397, “Discovery and Optimization of Pyrazole Amides as Inhibitors of ELOVL1” (J Med Chem, 2021).

Columns and labels:
[1] = Intrinsic clearance in rat hepatocytes assessed per million cells; type: ADME, cell-based, Hepatocyte; conditions: read-out: CLH
[2] = Intrinsic clearance in human hepatocytes assessed per million cells; type: ADME, cell-based, Hepatocyte; conditions: read-out: CLH
[3] = target: T1, Very long chain fatty acid elongase 1 (Homo sapiens, UniProt Q9BW60); experiment: Inhibition of ELOVL1 (unknown origin) using C22-acyl-CoA as substrate by radiometric enzyme assay
T1 sequence (Q9BW60 whole entry): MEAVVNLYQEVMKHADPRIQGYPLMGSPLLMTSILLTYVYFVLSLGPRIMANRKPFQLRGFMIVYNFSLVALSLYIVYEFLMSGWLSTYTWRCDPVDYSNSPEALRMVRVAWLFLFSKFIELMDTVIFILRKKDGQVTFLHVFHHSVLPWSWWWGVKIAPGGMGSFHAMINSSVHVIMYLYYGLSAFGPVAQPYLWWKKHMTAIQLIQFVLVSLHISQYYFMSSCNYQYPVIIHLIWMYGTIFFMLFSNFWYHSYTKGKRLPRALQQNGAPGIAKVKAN

[4] = target: T1, Very long chain fatty acid elongase 1; experiment: Inhibition of ELOVL1 in human HEK2936E cells assessed as reduction of C26:0 LPC synthesis incubated for 48 hrs by cellular assay; type: cell-based
[5] = Reduction in C26:0 LPC level in ABCD1 (-/y) knock out mouse brain at 0.4 to 2 mg/kg, ip administered daily measured after 4.5 months by LC-MS/MS analysis; type: functional; parameters: scale not given: the % may be the effect or the level left; conditions: dose 0.4-2 mg/kg, 3285 h
[6] = target: T2, Very long chain fatty acid elongase 6 (Homo sapiens, UniProt Q9H5J4); experiment: Inhibition of ELOVL6 (unknown origin) using C16-acyl-CoA as substrate by radiometric enzyme assay
T2 sequence (Q9H5J4 whole entry): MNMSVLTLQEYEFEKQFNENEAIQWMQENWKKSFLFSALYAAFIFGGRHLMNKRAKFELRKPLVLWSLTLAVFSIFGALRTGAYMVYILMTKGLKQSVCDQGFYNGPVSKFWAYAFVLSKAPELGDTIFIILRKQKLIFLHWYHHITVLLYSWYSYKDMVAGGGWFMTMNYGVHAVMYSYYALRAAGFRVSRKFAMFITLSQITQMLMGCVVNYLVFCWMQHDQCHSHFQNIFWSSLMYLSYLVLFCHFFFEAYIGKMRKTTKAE

[7] = target: T3, Very long chain fatty acid elongase 7 (Homo sapiens, UniProt A1L3X0); experiment: Inhibition of ELOVL7 (unknown origin) using C18-acyl-CoA as substrate by radiometric enzyme assay
T3 sequence (A1L3X0 whole entry): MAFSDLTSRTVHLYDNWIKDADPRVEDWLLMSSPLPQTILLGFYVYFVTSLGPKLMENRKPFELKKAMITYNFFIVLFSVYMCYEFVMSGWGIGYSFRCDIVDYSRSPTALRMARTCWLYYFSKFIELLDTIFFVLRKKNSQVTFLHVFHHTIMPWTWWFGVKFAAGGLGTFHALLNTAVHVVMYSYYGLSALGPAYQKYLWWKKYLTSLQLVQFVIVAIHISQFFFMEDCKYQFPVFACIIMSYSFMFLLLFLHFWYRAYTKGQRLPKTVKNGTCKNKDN

hepatocyte CLint [1] [µL/min/1e6 cells] | hepatocyte CLint [2] [µL/min/1e6 cells] | IC50 [3] [nM] | IC50 [4] [nM] | IC50 [6] [nM] | IC50 [7] [nM] | SMILES | Activity [5] [%]
281 | 102 | 3200 | 280 |  |  | O=C(Cc1ccccc1F)Nc1nc(-c2ccccc2)cs1 | 
 |  | 1800 |  | > 100000 | > 100000 | O=C(Nc1nc(-c2ccncc2)cs1)C1(c2ccccc2)CC1 | 
 |  | > 50000 |  |  |  | O=C(Cc1ccccc1F)Nc1ncc(-c2ccccc2)o1 | 
 |  | > 50000 | > 5000 |  |  | O=C(Cc1ccccc1F)Nc1nccc(-c2ccccc2)n1 | 
 |  | 4400 |  | > 100000 | > 100000 | O=C(Cc1ccccc1F)Nc1nc(-c2ccnc(F)c2)cs1 | 
50 | 7 | 560 | 22 |  |  | O=C(Nc1ccn(-c2cncc(F)c2)n1)C1(c2ccccc2)CC1 | 
398 | 127 | 4000 | 500 |  |  | O=C(Cc1ccccc1)Nc1nc(-c2ccccc2)cs1 | 
25 | 14 | 400 | 18 |  |  | O=C(Nc1ccn(-c2ncns2)n1)C1(c2ccccc2F)CC1 | 
59 | 14 | 900 | 30 |  |  | O=C(Nc1ccn(-c2ccncn2)n1)C1(c2ccccc2F)CC1 | 
 |  | > 50000 | > 5000 |  |  | O=C(Cc1ccccc1F)Nc1cccc(-c2ccccc2)n1 | 
519 | 90 | 2700 | 70 |  |  | O=C(Cc1ccccc1)Nc1ccn(-c2ccccc2)n1 | 
32 | 31 | 8200 | 260 |  |  | O=C(Nc1ccn(-c2ccccc2)n1)C1(c2ccccc2)COC1 | 
 |  | > 50000 | > 5000 |  |  | O=C(Cc1ccccc1F)Nc1cnn(-c2ccccc2)c1 | 
 |  | 30000 |  | > 100000 | > 100000 | O=C(Nc1nc(-c2ccccc2)cs1)C1CCCO1 (stereo not drawn) | 
 |  | > 50000 |  |  |  | O=C(Cc1ccccc1F)Nc1ccnc(-c2ccccc2)n1 | 
111 | 38 | 500 | 20 |  |  | O=C(Nc1ccn(-c2ccccc2)n1)C1(c2ccccc2)CC1 | 
237 | 30 | 500 | 12 |  |  | O=C(Nc1ccn(-c2ccccc2)n1)C1(c2ccccc2F)CC1 | 
 |  | > 50000 | > 5000 |  |  | O=C(Cc1ccccc1F)Nc1ncn(-c2ccccc2)n1 | 

The next lines start with the compound.

SMILES | hepatocyte CLint [1] [µL/min/1e6 cells] | hepatocyte CLint [2] [µL/min/1e6 cells] | IC50 [3] [nM] | IC50 [4] [nM] | IC50 [6] [nM] | IC50 [7] [nM] | Activity [5] [%]
N#Cc1ccc(C2(C(=O)Nc3ccn(-c4cncc(F)c4)n3)CC2)cc1 | 8 | 5 | 2200 | 110 |  |  | 
CC(C)(C(=O)Nc1ccn(-c2ccccc2)n1)c1ccccc1 | 262 | 18 | 2700 | 300 |  |  | 
O=C(Nc1ccn(-c2cncc(F)c2)n1)C1(c2c(F)cccc2F)CC1 | 13 | 4 | 1200 | 17 |  |  | 
COc1ccc(C2(C(=O)Nc3ccn(-c4cncc(F)c4)n3)CC2)cc1 | 103 | 11 | 3700 | 640 |  |  | 
Cc1cc(OCC(=O)O)cc(C)c1Cc1ccc(O)c(C(C)C)c1 [SOBETIROME] |  |  |  |  |  |  | 21
Cc1ccccc1C1(C(=O)Nc2ccn(-c3cncc(F)c3)n2)CC1 | 400 | 40 | 7500 | 400 |  |  | 
O=C(Nc1ccn(-c2ccncc2)n1)C1(c2ccccc2F)CC1 | 80 |  | 1500 | 80 |  |  | 
O=C(Nc1ccn(-c2cncc(F)c2)n1)C1(c2ccc(F)cc2)CC1 | 88 | 4 | 830 | 100 |  |  | 
C[C@@H](C(=O)Nc1ccn(-c2ccccc2)n1)c1ccccc1 | 313 | 56 | 1600 | 210 |  |  | 
N#Cc1ccccc1C1(C(=O)Nc2ccn(-c3cncc(F)c3)n2)CC1 | 13 | 5 | 23000 | 2500 |  |  | 
O=C(Nc1ccn(-c2ccccc2)n1)C1(c2ccccc2)CC1(F)F (stereo not drawn) | 278 | 194 | 980 | 140 |  |  | 
Nc1cc(-n2ccc(NC(=O)C3(c4ccccc4F)CC3)n2)ccn1 | 54 | 9 | > 20000 | 1900 |  |  | 
CC1(C)CC1(C(=O)Nc1ccn(-c2ccccc2)n1)c1ccccc1 (stereo not drawn) | 239 | 50 | 4400 | 900 |  |  | 
O=C(Nc1ccn(-c2cncc(F)c2)n1)C1(c2cccc(F)c2)CC1 | 97 | 8 | 1600 | 190 |  |  | 
O=C(Nc1ccn(-c2cncc(F)c2)n1)C1(c2ccccc2F)CC1 | 68 | 10 | 1200 | 18 |  |  | 
O=C(Nc1ccn(-c2cncc(F)c2)n1)C1(c2cc(F)ccc2F)CC1 | 25 | 6 | 550 | 170 |  |  | 

SMILES | hepatocyte CLint [1] [µL/min/1e6 cells] | hepatocyte CLint [2] [µL/min/1e6 cells] | IC50 [3] [nM] | IC50 [4] [nM] | IC50 [6] [nM] | IC50 [7] [nM] | Activity [5] [%]
O=C(Cc1ccccc1F)Nc1cnn(-c2ccccc2)n1 | 518 | 101 | > 8000 | 900 |  |  | 
O=C(Nc1ccn(-c2cncc(F)c2)n1)C1(c2ccc(Cl)cc2)CC1 | 133 | 5 | 2400 | 340 |  |  | 
C[C@H](C(=O)Nc1ccn(-c2ccccc2)n1)c1ccccc1 | 308 | 37 | 2000 | 38 |  |  | 
O=C(Cc1ccccc1F)Nc1ccn(-c2ccccc2)n1 | 182 | 55 | 1600 | 60 |  |  | 
O=C(Nc1ccn(-c2cncc(F)c2)n1)C1(c2cccc(F)c2F)CC1 | 54 | 6 | 1300 | 140 |  |  | 
CCOC(C(=O)Nc1ccn(-c2ccccc2)n1)c1ccccc1 (stereo not drawn) |  |  | > 50000 | > 5000 |  |  | 
O=C(Nc1ccn(-c2ccc(F)nc2)n1)C1(c2ccccc2F)CC1 | 23 | 6 | 800 | 23 |  |  | 
N#Cc1cccc(C2(C(=O)Nc3ccn(-c4cncc(F)c4)n3)CC2)c1 | 60 | 4 | 2300 | 310 |  |  | 
CC[C@@H](C(=O)Nc1ccn(-c2ccccc2)n1)c1ccccc1 | 123 | 88 | 9500 | 650 |  |  | 
Cc1cc(-n2ccc(NC(=O)C3(c4ccccc4F)CC3)n2)ccn1 | 78 | 7 | 21000 | 1600 |  |  | 
O=C(Nc1ccn(-c2ccnc(C(F)(F)F)c2)n1)C1(c2ccccc2F)CC1 | 51 | 8 | > 50000 | > 5000 |  |  | 
O=C(Nc1ccn(-c2cncc(F)c2)n1)C1(c2ccccc2Cl)CC1 | 61 | 8 | 4500 | 110 |  |  | 
COc1cc(-n2ccc(NC(=O)C3(c4ccccc4F)CC3)n2)ccn1 | 130 | 11 | 1200 | 50 |  |  | 
COc1cccc(C2(C(=O)Nc3ccn(-c4cncc(F)c4)n3)CC2)c1 | 355 | 19 | 1500 | 170 |  |  | 
CN(C)C(C(=O)Nc1ccn(-c2ccccc2)n1)c1ccccc1 (stereo not drawn) |  |  | > 50000 | 1700 |  |  | 
COc1ccccc1C1(C(=O)Nc2ccn(-c3cncc(F)c3)n2)CC1 |  |  | > 50000 | > 5000 |  |  | 
